IC50, Dmax and DC50 data for 14 molecules are collected here from patent US12528814B2, “Bifunctional degraders of interleukin-1 receptor-associated kinases and therapeutic use thereof” (NURIX THERAPEUTICS, INC., priority 2020, dated 2026).

SMILES strings stand for the structures.

The target of assay [1] is T1, IRAK4 (Homo sapiens (Human), UniProt Q9NWZ3). The experiment in a line: IRAK4 Biochemical HTRF Kinase Assay. The settings on record: Table 5; multiple runs; read-out: IRAK4 HTRF biochemical: IC50. The procedure, abridged: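 HTRF KinEASE STK S1 format measuring IRAK4 phosphorylation of biotinylated peptide; reaction solution of 5 μM STK-S1, 10 mM ATP, 10 mM MgCl2 added (stock, to 10 μl final), 90 min at ambient temperature, detection 60 min. IC50 from sixteen-point duplicate curves by non-linear regression.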
For orientation: Time-resolved FRET reads energy transfer from a long-lived donor to a nearby acceptor.
Target sequence in this assay (Q9NWZ3 whole entry, species assumed): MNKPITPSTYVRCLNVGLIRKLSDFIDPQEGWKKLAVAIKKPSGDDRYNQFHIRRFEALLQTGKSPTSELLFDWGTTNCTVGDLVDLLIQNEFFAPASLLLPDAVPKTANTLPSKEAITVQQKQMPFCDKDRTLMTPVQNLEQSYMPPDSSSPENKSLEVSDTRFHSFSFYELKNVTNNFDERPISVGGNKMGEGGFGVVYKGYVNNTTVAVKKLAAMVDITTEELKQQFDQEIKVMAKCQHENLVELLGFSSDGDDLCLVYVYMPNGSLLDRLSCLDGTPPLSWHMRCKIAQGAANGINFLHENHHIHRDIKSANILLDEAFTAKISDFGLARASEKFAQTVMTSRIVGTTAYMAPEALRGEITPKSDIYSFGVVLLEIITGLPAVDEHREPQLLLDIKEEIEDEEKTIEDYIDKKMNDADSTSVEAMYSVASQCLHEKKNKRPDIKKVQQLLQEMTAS

In assay [2] the target is T1, IRAK4. Put plainly: IRAK4 Degradation HiBiT Assay. Particulars: multiple runs, HiBiT-tagged Jurkat cells, 4 hrs; for Dmax: Jurkat, read-out: Cellular IRAK4 HiBiT: Dmax, Table 5; for DC50: read-out: Cellular IRAK4 HiBiT: DC50, Table 5. On the technique in general: With HiBiT, luminescence reflects the tagged protein that the partner subunit can reach.
Target sequence in this assay (Q9NWZ3 whole entry): as the sequence (Q9NWZ3 whole entry, species assumed) above

`CC(C)Nc1cc(-c2ccc3cc(C#N)cnn23)ncc1-c1nnc(N2CCN(C3CCN(C(=O)Cc4ccc5c(c4)CN(C4CCC(=O)NC4=O)C5=O)CC3)CC2)s1` (stereo not shown) [Example 75, 7-(5-(5-(4-(1-(2-(2-(2,6-dioxopiperidin-3-yl)-1-oxoisoindolin-5-yl)acetyl)piperidin-4-yl)piperazin-1-yl)-1,3,4-thiadiazol-2-yl)-4-(isopropylamino)pyridin-2-yl)pyrrolo[1,2-b]pyridazine-3-carbonitrile]: on IRAK4 [1], the concentration for half-maximal inhibition (IC50) came out at 0.8 nM. Besides, on IRAK4 [2], the Dmax was found to be 111% and the DC50 stood at 8.59 nM.
As to `CC(C)Nc1cc(-c2ccc3cc(C#N)cnn23)ncc1-c1nnc(N2CCN(C3CCN(C(=O)Cc4cccc5c4CN(C4CCC(=O)NC4=O)C5=O)CC3)CC2)s1` (stereo not shown) [Example 76, 7-(5-(5-(4-(1-(2-(2-(2,6-dioxopiperidin-3-yl)-1-oxoisoindolin-4-yl)acetyl)piperidin-4-yl)piperazin-1-yl)-1,3,4-thiadiazol-2-yl)-4-(isopropylamino)pyridin-2-yl)pyrrolo[1,2-b]pyridazine-3-carbonitrile], the IC50 on IRAK4 [1] is 0.8 nM. For the same molecule, on IRAK4 [2], the Dmax was 100% and the 50% degradation concentration (DC50) turned out to be 13.1 nM.
For `CC(C)Nc1cc(-c2ccc3cc(C#N)cnn23)ncc1-c1nnc(N2CCN(C3CCN(C(=O)c4ccc5c(c4)C(=O)N(C4CCC(=O)NC4=O)C5)CC3)CC2)s1` (stereo not shown) [Example 77, 7-(5-(5-(4-(1-(2-(2,6-dioxopiperidin-3-yl)-3-oxoisoindoline-5-carbonyl)piperidin-4-yl)piperazin-1-yl)-1,3,4-thiadiazol-2-yl)-4-(isopropylamino)pyridin-2-yl)pyrrolo[1,2-b]pyridazine-3-carbonitrile] the same measures were 0.5 nM, 114% and 15.1 nM.
As for `Cc1ncsc1-c1ccc([C@H](C)NC(=O)[C@@H]2C[C@@H](O)CN2C(=O)[C@@H](NC(=O)CCOCCOCCOCCC(=O)N2CCN(c3nnc(-c4cnc(-c5ccc6cc(C#N)cnn56)cc4NC(C)C)s3)CC2)C(C)(C)C)cc1` [Example 78, (2S,4R)-1-((S)-2-(tert-butyl)-16-(4-(5-(6-(3-cyanopyrrolo[1,2-b]pyridazin-7-yl)-4-(isopropylamino)pyridin-3-yl)-1,3,4-thiadiazol-2-yl)piperazin-1-yl)-4,16-dioxo-7,10,13-trioxa-3-azahexadecanoyl)-4-hydroxy-N—((S)-1-(4-(4-methylthiazol-5-yl)phenyl)ethyl)pyrrolidine-2-carboxamide], at IRAK4 [1], the IC50 stood at 2.4 nM. For the same molecule, on IRAK4 [2], the Dmax stood at 74% and the DC50 was 332 nM.
Taken in the same sequence, the figures for `Cc1ncsc1-c1ccc(CNC(=O)[C@@H]2C[C@@H](O)CN2C(=O)[C@@H](NC(=O)C2(F)CC2)C(C)(C)C)c(OCCCC(=O)N2CCN(c3nnc(-c4cnc(-c5ccc6cc(C#N)cnn56)cc4NC(C)C)s3)CC2)c1` [Example 79, (2S,4R)—N-(2-(4-(4-(5-(6-(3-cyanopyrrolo[1,2-b]pyridazin-7-yl)-4-(isopropylamino)pyridin-3-yl)-1,3,4-thiadiazol-2-yl)piperazin-1-yl)-4-oxobutoxy)-4-(4-methylthiazol-5-yl)benzyl)-1-((S)-2-(1-fluorocyclopropane-1-carboxamido)-3,3-dimethylbutanoyl)-4-hydroxypyrrolidine-2-carboxamide] were 9.8 nM, 113% and 137 nM.
Taken in the same sequence, the figures for `Cc1ncsc1-c1ccc(CNC(=O)[C@@H]2C[C@@H](O)CN2C(=O)[C@@H](NC(=O)C2(F)CC2)C(C)(C)C)c(OCC(=O)N2CCC(C(=O)N3CCN(c4nnc(-c5cnc(-c6ccc7cc(C#N)cnn67)cc5NC(C)C)s4)CC3)CC2)c1` [Example 80, (2S,4R)—N-(2-(2-(4-(4-(5-(6-(3-cyanopyrrolo[1,2-b]pyridazin-7-yl)-4-(isopropylamino)pyridin-3-yl)-1,3,4-thiadiazol-2-yl)piperazine-1-carbonyl)piperidin-1-yl)-2-oxoethoxy)-4-(4-methylthiazol-5-yl)benzyl)-1-((S)-2-(1-fluorocyclopropane-1-carboxamido)-3,3-dimethylbutanoyl)-4-hydroxypyrrolidine-2-carboxamide] were 3.7 nM, 115% and 313 nM.
For `CC(C)Nc1cc(-c2ccc3cc(C#N)cnn23)ncc1-c1nnc(N2CCC3(CCN(Cc4ccc5c(c4)C(=O)N(C4CCC(=O)NC4=O)C5=O)CC3)CC2)s1` (stereo not shown) [Example 81, 7-(5-(5-(9-((2-(2,6-dioxopiperidin-3-yl)-1,3-dioxoisoindolin-5-yl)methyl)-3,9-diazaspiro[5.5]undecan-3-yl)-1,3,4-thiadiazol-2-yl)-4-(isopropylamino)pyridin-2-yl)pyrrolo[1,2-b]pyridazine-3-carbonitrile] the same measures were 1.8 nM, 81% and 64.9 nM.
Take `CC(C)Nc1cc(-c2ccc3cc(C#N)cnn23)ncc1-c1nnc(N2CCC3(CCN(C(=O)CNc4cccc5c4C(=O)N(C4CCC(=O)NC4=O)C5=O)CC3)CC2)s1` (stereo not shown) [Example 82, 7-(5-(5-(9-((2-(2,6-dioxopiperidin-3-yl)-1,3-dioxoisoindolin-4-yl)glycyl)-3,9-diazaspiro[5.5]undecan-3-yl)-1,3,4-thiadiazol-2-yl)-4-(isopropylamino)pyridin-2-yl)pyrrolo[1,2-b]pyridazine-3-carbonitrile]: the concentration for half-maximal inhibition (IC50) at IRAK4 [1] is 3.1 nM. At IRAK4 [2], the Dmax turned out to be 61% and the 50% degradation concentration (DC50) is 72.8 nM.
Take `Cc1ncsc1-c1ccc(CNC(=O)[C@@H]2C[C@@H](O)CN2C(=O)[C@@H](NC(=O)C2(F)CC2)C(C)(C)C)c(OCC(=O)N2CCC3(CC2)CCN(c2nnc(-c4cnc(-c5ccc6cc(C#N)cnn56)cc4NC(C)C)s2)CC3)c1` [Example 83, (2S,4R)—N-(2-(2-(9-(5-(6-(3-cyanopyrrolo[1,2-b]pyridazin-7-yl)-4-(isopropylamino)pyridin-3-yl)-1,3,4-thiadiazol-2-yl)-3,9-diazaspiro[5.5]undecan-3-yl)-2-oxoethoxy)-4-(4-methylthiazol-5-yl)benzyl)-1-((S)-2-(1-fluorocyclopropane-1-carboxamido)-3,3-dimethylbutanoyl)-4-hydroxypyrrolidine-2-carboxamide]: the IC50 on IRAK4 [1] was determined as 6.8 nM. Also, on IRAK4 [2], the Dmax amounted to 109% and the DC50 was found to be 319 nM.
For `Cc1ncsc1-c1ccc(CNC(=O)[C@@H]2C[C@@H](O)CN2C(=O)[C@@H](NC(=O)C2(F)CC2)C(C)(C)C)c(OCC(=O)N2CCC(CN3CCN(c4nnc(-c5cnc(-c6ccc7cc(C#N)cnn67)cc5NC(C)C)s4)CC3)CC2)c1` [Example 84, (2S,4R)—N-(2-(2-(4-((4-(5-(6-(3-cyanopyrrolo[1,2-b]pyridazin-7-yl)-4-(isopropylamino)pyridin-3-yl)-1,3,4-thiadiazol-2-yl)piperazin-1-yl)methyl)piperidin-1-yl)-2-oxoethoxy)-4-(4-methylthiazol-5-yl)benzyl)-1-((S)-2-(1-fluorocyclopropane-1-carboxamido)-3,3-dimethylbutanoyl)-4-hydroxypyrrolidine-2-carboxamide] the same measures were 5.5 nM, 115% and 247 nM.
`CC(C)Nc1cc(-c2ccc3cc(C#N)cnn23)ncc1-c1nnc(N2CCN(CC3CCN(Cc4ccc5c(c4)C(=O)N(C4CCC(=O)NC4=O)C5=O)CC3)CC2)s1` (stereo not shown) [Example 85, 7-(5-(5-(4-((1-((2-(2,6-dioxopiperidin-3-yl)-1,3-dioxoisoindolin-5-yl)methyl)piperidin-4-yl)methyl)piperazin-1-yl)-1,3,4-thiadiazol-2-yl)-4-(isopropylamino)pyridin-2-yl)pyrrolo[1,2-b]pyridazine-3-carbonitrile]: at IRAK4 [1], the IC50 is 2.1 nM. Besides, the DC50 at IRAK4 [2] was > 970 nM.
On to `CNc1cc(-c2ccc3cc(C#N)cnn23)ncc1-c1nnc(N2CCN(C(=O)C3CCN(Cc4ccc5c(c4)C(=O)N(C4CCC(=O)NC4=O)C5=O)CC3)CC2)s1` (stereo not shown) [Example 86, 7-(5-(5-(4-(1-((2-(2,6-dioxopiperidin-3-yl)-1,3-dioxoisoindolin-5-yl)methyl)piperidine-4-carbonyl)piperazin-1-yl)-1,3,4-thiadiazol-2-yl)-4-(methylamino)pyridin-2-yl)pyrrolo[1,2-b]pyridazine-3-carbonitrile], for which the 50% inhibitory concentration (IC50) on IRAK4 [1] turned out to be 1.1 nM. In addition, at IRAK4 [2], the Dmax worked out at 105% and the half-maximal degradation concentration (DC50) stood at 18.5 nM.
Taken in the same sequence, the figures for `CC(C)Nc1cc(-c2ccc3cc(C#N)cnn23)ncc1-c1nnc(N2CCC3(CCN(C(=O)c4ccc5c(c4)C(=O)N(C4CCC(=O)NC4=O)C5)CC3)CC2)s1` (stereo not shown) [Example 87, 7-(5-(5-(9-(2-(2,6-dioxopiperidin-3-yl)-3-oxoisoindoline-5-carbonyl)-3,9-diazaspiro[5.5]undecan-3-yl)-1,3,4-thiadiazol-2-yl)-4-(isopropylamino)pyridin-2-yl)pyrrolo[1,2-b]pyridazine-3-carbonitrile] were 2.4 nM, 70% and 15.8 nM.
On to `CNc1cc(-c2ccc3cc(C#N)cnn23)ncc1-c1nnc(N2CCN(C(=O)C[C@@H]3CCCN(c4cccc5c4C(=O)N(C4CCC(=O)NC4=O)C5=O)C3)CC2)s1` (stereo partly drawn) [Example 88, 7-(5-(5-(4-(2-((3S)-1-(2-(2,6-dioxopiperidin-3-yl)-1,3-dioxoisoindolin-4-yl)piperidin-3-yl)acetyl)piperazin-1-yl)-1,3,4-thiadiazol-2-yl)-4-(methylamino)pyridin-2-yl)pyrrolo[1,2-b]pyridazine-3-carbonitrile], for which, on IRAK4 [1], the IC50 is 1.4 nM. Besides, the DC50 on IRAK4 [2] was > 3330 nM.

Broadly, the IC50 is the concentration needed to halve the response being measured. The term Dmax denotes the greatest extent of degradation seen. The DC50 is the concentration at which degradation of the target reaches its halfway point.
